Assay results reported in the supplement of paper PMC10307832.

Tests used:
Experiment in all cases: relative viability (nuclei count vs DMSO), 5 days (fraction); higher = more cells survive
Trametinib + Linsitinib = compound: CC(=O)Nc1cccc(-n2c(=O)n(C3CC3)c(=O)c3c(Nc4ccc(I)cc4F)n(C)c(=O)c(C)c32)c1 [Trametinib] + C[C@]1(O)C[C@@H](c2nc(-c3ccc4ccc(-c5ccccc5)nc4c3)c3c(N)nccn32)C1 [Linsitinib] (partner 1 µM)
How it was run: (§1)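 Relative viability equals treated-well nuclei counts divided by vehicle-well nuclei counts. Counts came from 4× images of lung cancer cell lines grown in 1536-well plates for 5 days after pin-tool dosing on the day after seeding. Dosing used one drug alone or a fixed anchor-drug dose plus five library-drug doses (not always all listed) in √10 steps, and values are medians of duplicate plates.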

[1] = compound: CN1C=C(C2=CC=CC=C21)/C=C\3/C4=C(C=CC=N4)NC3=O + C[C@@H](Oc1cc(-c2cnn(C3CCNCC3)c2)cnc1N)c1c(Cl)ccc(F)c1Cl [Crizotinib] (partner 1 µM)
How it was run: as §1

[2] = compound: CN1C=C(C2=CC=CC=C21)/C=C\3/C4=C(C=CC=N4)NC3=O + Cc1nc(NC(=O)N2CCC[C@H]2C(N)=O)sc1-c1ccnc(C(C)(C)C(F)(F)F)c1 [Alpelisib] (partner 2 µM)
How it was run: as §1

[3] = compound: CN1C=C(C2=CC=CC=C21)/C=C\3/C4=C(C=CC=N4)NC3=O + CC(C)C[C@H](NC(=O)[C@H](Cc1ccccc1)NC(=O)c1cnccn1)B(O)O [Bortezomib] (partner 0.002 µM)
How it was run: as §1

Cell Line	relative viability (Trametinib + Linsitinib; first compound 0.0025 µM)	relative viability (Trametinib + Linsitinib; first compound 0.007906 µM)	relative viability (Trametinib + Linsitinib; first compound 0.025 µM)	relative viability (Trametinib + Linsitinib; first compound 0.07906 µM)	relative viability (Trametinib + Linsitinib; first compound 0.25 µM)	relative viability ([1]; first compound 0.02 µM)	relative viability ([1]; first compound 0.06325 µM)	relative viability ([1]; first compound 0.2 µM)	relative viability ([1]; first compound 0.6325 µM)	relative viability ([1]; first compound 2 µM)	relative viability ([2]; first compound 0.02 µM)	relative viability ([2]; first compound 0.06325 µM)	relative viability ([2]; first compound 0.2 µM)	relative viability ([2]; first compound 0.6325 µM)	relative viability ([2]; first compound 2 µM)	relative viability ([3]; first compound 0.02 µM)	relative viability ([3]; first compound 0.06325 µM)	relative viability ([3]; first compound 0.2 µM)	relative viability ([3]; first compound 0.6325 µM)	relative viability ([3]; first compound 2 µM)
NCI-H1437	0.996	0.412	0.294	0.209	0.176	0.878	0.898	0.989	0.915	1.14	0.877	0.897	1.15	1.1	1.16	0.629	0.613	0.475	0.511	0.54
NCI-H3122	0.938	0.734	0.429	0.329	0.295	0.226	0.231	0.275	0.29	0.28	0.727	0.764	0.722	0.802	1	0.943	0.986	1	1.06	0.992
NCI-H1563	1.22	1.08	1.1	1.12	0.808	0.871	0.897	0.736	0.893	0.971	0.898	0.951	0.73	0.977	0.863	1.05	0.827	0.753	0.838	0.852
NCI-H727	0.21	0.164	0.104	0.144	0.155	0.835	0.614	0.691	0.81	0.808	0.48	0.533	0.307	0.466	0.604	0.923	0.564	0.646	1.24	1.32
Calu-6	0.951	0.719	0.35	0.15	0.124	0.675	0.783	0.815	0.772	0.816	0.823	0.856	0.959	0.975	0.911	0.985	0.923	0.87	0.946	1.04
NCI-H1734	0.845	0.739		0.788	0.613	0.665	0.677		0.696	0.744	0.706	0.663		0.675	0.662	0.91	0.851		0.859	1.02
HCC-15	0.694	0.447	0.294	0.239	0.186	0.805	0.795	0.887	0.897	0.955	1.01	0.848	0.808	0.889	0.958	0.972	0.939	1.09	1.09	1.18
NCI-H2405	0.577	0.486	0.382	0.362	0.349	0.769	0.832		0.829	0.821	0.654	0.776	0.769	0.842	0.7	0.997	0.874		0.892	1
NCI-H1993	0.774	0.752	0.719	0.723	0.745	0.726	0.816	0.741	0.868	0.87	0.631	0.653	0.678	0.736	0.698	0.916	1.09	1.09	0.691	0.697
NCI-H460	0.656	0.265	0.153	0.0822	0.0212	0.994	0.99	0.932		0.902	0.539	0.466	0.53		0.391	1.23	1.1	1.07		1.14
NCI-H1651	0.969	0.763	0.888	0.835	0.659	0.804	0.905	0.876	0.819	0.895	0.916	0.947	1.06	0.998	0.921	0.811	1.03	0.931	0.885	1.06
NCI-H1975	0.93	0.897	0.603	0.384	0.38	0.749	0.939	0.915	0.817	0.796	0.603	0.718	0.536	0.625	0.498	0.431	0.36	0.344	0.322	0.317
NCI-H2126	0.617	0.613	0.422	0.546	0.454	0.994	1	1.06	1.03	1.02	0.794	0.775	0.741	0.716	0.6	1.19	1.15	1.09	1.16	1.12
201T	1.01	1.02	0.863	0.959	0.778	1.01	1.04	1.05	1.12	1.01	0.998	1.04	1.08	1	0.913	1.02	1.18	1.07	1.16	1.09
HCC-78	0.543	0.323	0.314	0.354	0.36	0.335	0.26	0.326	0.337	0.372	0.289	0.509	0.304	0.282	0.287	0.41	0.499	0.519	0.432	0.469
SK-LU-1	1.18	0.965	0.888	0.778	0.443	0.619	0.809	1.14	1.07	1.1	0.879	0.671	0.956	0.94	1.17	0.806	0.892	0.908	0.858	1.39
H3255	1.02	0.822	0.795	0.855	0.575	0.91	0.935	0.874	0.888	0.889	0.705	0.722	0.642	0.757	0.855	0.935	0.843	0.704	0.701	0.655
LOU-NH91	0.864	0.801	0.771	0.735	0.526	0.74	0.649	0.672	0.709	0.724	0.658	0.698	0.598	0.698	0.69	0.473	0.489	0.468	0.441	0.485
NCI-H1666	0.56	0.524	0.426	0.571	0.388	0.847	0.822	0.704	1.17	0.927	0.94	0.814	0.805	0.915	0.616	1	0.77	0.542	0.692	0.709
NCI-H2023	0.549	0.47	0.45	0.424	0.217	0.647	0.543	0.606	0.62	0.694	0.649	0.594	0.542	0.516	0.53	1.09	0.903	0.268	0.958	1.04
COR-L 105	0.788	0.754	0.49	0.394	0.367	0.655	0.515	0.637	0.849	0.885	0.907	0.898	0.922	1.01	0.874	0.743	0.749	0.693	0.675	0.811
NCI-H838	0.912	0.867		0.754	0.528	0.615	0.657	0.761	0.707	0.833	0.603	0.859	0.792	0.901	0.937	0.79	0.769	0.835	0.785	0.818
SW 1573	0.847	0.602	0.654	0.487	0.449	0.727	0.832	0.816	0.712	0.874	0.742	0.644	0.782	0.803	0.814	1.02	0.904	1.11	1.11	1
